# Columns and labels:
# [1] = system: Stx17 phosphorylation (Stx17^pS02) by TBK1; experiment: Western blot of Stx17 phosphorylation at Ser-202 in HeLa cells; format: cell-based, human
# [2] = system: LDH sequestration in autophagosomes, HeLa cells; experiment: LDH (lactate dehydrogenase) sequestration assay; format: cell-based, human; settings: WT HeLa cells, EBSS 2 h in presence of bafilomycin A1; 3-methyladenine 10 mM as positive control (FIG. 7N,O)
smiles,measurement,setting,value
"CC(=O)N[C@H]1C(O)O[C@H](CO)[C@@H](O)[C@@H]1O[C@H](C)C(=O)N[C@@H](C)C(=O)N[C@H](CCC(=O)O)C(N)=O (mixture of isomers) [MDP, muramyl-dipeptide]",Stx17^pS02 band response to agonists of TBK1,"[1]; HeLa cells, Western blot (FIG. 8H), band also detectable in resting cells",responsive
"Cn1cnc(N)c2ncnc1-2 [3MA, 3-methyladenine]",LDH (bulk autophagy cargo) sequestration in autophagosomes,[2],reduction in cargo sequestration
O=C(NCCCNc1nc(Nc2cccc(NC(=O)N3CCCC3)c2)ncc1I)c1cccs1 [BX795],Stx17 phosphorylation (Stx17^pS02),"[1]; cells stimulated with LPS, HeLa WT or TBK1 KO cells, Western blot (FIG. 8I)",inhibited Stx17 phosphorylation
same,baseline Stx17^pS02 levels,"[1]; unstimulated cells, Western blot (FIG. 8I)",reduced the low baseline levels

# — US11878018B1, “Phosphorylation of Syntaxin 17 by TBK1 controls autophagy initiation” (priority 2018, dated 2024)
